Activity calls are given as the source filed them. No cut-off for these calls is given here.
Key:
SGC-7901 [1] = assay: Antiproliferative activity against human SGC7901 cells incubated for 48 hrs and measured after 4 hrs by MTT assay; assay type: functional, cell-based
MCF7 [2] = assay: Potency index, ratio of IC50 for AD-2 to IC50 for test compound for antiproliferative activity against human MCF7 incubated for 48 hrs and measured after 4 hrs by MTT assay; assay type: functional
MGC-803 [3] = assay: Antiproliferative activity against human MGC803 cells incubated for 48 hrs and measured after 4 hrs by MTT assay; assay type: functional, cell-based
SGC-7901 [4] = assay: Potency index, ratio of IC50 for AD-2 to IC50 for test compound for antiproliferative activity against human SGC7901 incubated for 48 hrs and measured after 4 hrs by MTT assay; assay type: functional
A549 [5] = assay: Cell cycle arrest in human A549 cells assessed as decrease in accumulation of cells at G2/M phase at 5 to 10 uM after 24 hrs by propidium iodide staining-based flow cytometric analysis; assay type: functional
MGC-803 [6] = assay: Potency index, ratio of IC50 for AD-2 to IC50 for test compound for antiproliferative activity against human MGC803 incubated for 48 hrs and measured after 4 hrs by MTT assay; assay type: functional
[7] = Cytotoxicity against human IOSE-144 cells incubated for 48 hrs and measured after 4 hrs by MTT assay; assay type: cell-based
A549 [8] = assay: Potency index, ratio of IC50 for AD-2 to IC50 for test compound for antiproliferative activity against human A549 incubated for 48 hrs and measured after 4 hrs by MTT assay; assay type: functional
A549 [9] = assay: Induction of apoptosis in human A549 cells assessed as decrease in PARP protein expression level at 5 to 20 uM incubated for 12 hrs by Western blot analysis; assay type: functional, cell-based
A549 [10] = assay: Cell cycle arrest in human A549 cells assessed as decrease in accumulation of cells at G0/G1 phase at 5 to 10 uM after 24 hrs by propidium iodide staining-based flow cytometric analysis; assay type: functional
A549 [11] = assay: Induction of apoptosis in human A549 cells assessed as upregulation of Cyt c protein expression at 5 to 20 uM incubated for 12 hrs by Western blot analysis; assay type: functional, cell-based
PC-3 [12] = assay: Antiproliferative activity against human PC3 cells incubated for 48 hrs and measured after 4 hrs by MTT assay; assay type: functional, cell-based
A549 [13] = assay: Induction of apoptosis in human A549 cells assessed as increase in cleaved caspase-9 protein expression level at 5 to 20 uM incubated for 12 hrs by Western blot analysis; assay type: functional, cell-based
MCF7 [14] = assay: Antiproliferative activity against human MCF7 cells incubated for 48 hrs and measured after 4 hrs by MTT assay; assay type: functional, cell-based
A549 [15] = assay: Induction of apoptosis in human A549 cells assessed as decrease in caspase-9 protein expression level at 5 to 20 uM incubated for 12 hrs by Western blot analysis; assay type: functional, cell-based
A549 [16] = assay: Induction of apoptosis in human A549 cells assessed as appearance of fragmented apoptotic bodies at 10 to 20 uM measured after 12 hrs by DAPI staining based fluorescence microscopic analysis; assay type: functional, cell-based
A549 [17] = assay: Cell cycle arrest in human A549 cells assessed as increase in expression of p53 at 5 to 20 uM measured after 12 hrs by Western blot analysis; assay type: functional, cell-based
A549 [18] = assay: Induction of apoptosis in human A549 cells assessed as upregulation of Bax protein expression at 5 to 20 uM incubated for 12 hrs by Western blot analysis; assay type: functional, cell-based
A549 [19] = assay: Induction of apoptosis in human A549 cells assessed as increase in cleaved caspase-3 protein expression level at 5 to 20 uM incubated for 12 hrs by Western blot analysis; assay type: functional, cell-based
A549 [20] = assay: Induction of apoptosis in human A549 cells assessed as cell shrinkage at 10 to 20 uM by microscopic analysis; assay type: functional, cell-based
A549 [21] = assay: Induction of apoptosis in human A549 cells assessed as decrease in Bcl2 protein expression level at 5 to 20 uM incubated for 12 hrs by Western blot analysis; assay type: functional, cell-based
A549 [22] = assay: Induction of apoptosis in human A549 cells assessed as decrease in caspase-3 protein expression level at 5 to 20 uM incubated for 12 hrs by Western blot analysis; assay type: functional, cell-based
A549 [23] = assay: Induction of apoptosis in human A549 cells at 10 to 15 uM after 12 hrs by flow cytometric analysis; assay type: functional, cell-based
A549 [24] = assay: Induction of ROS generation in human A549 cells assessed as intracellular ROS level at 10 to 15 uM after 30 mins by DCFH-DA staining-based flow cytometric analysis; assay type: functional, cell-based
A549 [25] = assay: Antiproliferative activity against human A549 cells incubated for 48 hrs and measured after 4 hrs by MTT assay; assay type: functional, cell-based
A549 [26] = assay: Suppression of mitochondrial membrane potential in human A549 cells assessed as increase in green fluorescence at 10 uM after 12 hrs by JC-1 staining based flow cytometry (reference value: 0.4%); assay type: functional
A549 [27] = assay: Induction of apoptosis in human A549 cells assessed as early apoptotic cells at 10 uM after 12 hrs by Annexin V-FITC/propidium iodide staining-based flow cytometric analysis (reference value: 0.9%); assay type: functional
A549 [28] = assay: Induction of apoptosis in human A549 cells assessed as nuclear shrinkage at 10 to 20 uM measured after 12 hrs by DAPI staining based fluorescence microscopic analysis; assay type: functional, cell-based
A549 [29] = assay: Induction of apoptosis in human A549 cells at 10 to 15 uM in presence of NAC after 12 hrs by flow cytometric analysis; assay type: functional, cell-based
A549 [30] = assay: Induction of apoptosis in human A549 cells assessed as appearance of apoptotic bodies at 10 to 20 uM by microscopic analysis; assay type: functional, cell-based
PC-3 [31] = assay: Potency index, ratio of IC50 for AD-2 to IC50 for test compound for antiproliferative activity against human PC3 incubated for 48 hrs and measured after 4 hrs by MTT assay; assay type: functional
A549 [32] = assay: Induction of apoptosis in human A549 cells assessed as increase in cleaved PARP protein expression level at 5 to 20 uM incubated for 12 hrs by Western blot analysis; assay type: functional, cell-based
A549 [33] = assay: Induction of apoptosis in human A549 cells measured after 12 hrs by Annexin V-FITC/propidium iodide staining-based flow cytometric analysis; assay type: functional, cell-based
A549 [34] = assay: Induction of apoptosis in human A549 cells assessed as nuclear condensation at 10 to 20 uM measured after 12 hrs by DAPI staining based fluorescence microscopic analysis; assay type: functional, cell-based
A549 [35] = assay: Induction of ROS generation in human A549 cells assessed as intracellular ROS level at 10 to 15 uM after 30 mins in presence of NAC by DCFH-DA staining-based flow cytometric analysis; assay type: functional, cell-based
A549 [36] = assay: Cell cycle arrest in human A549 cells assessed as increase in expression of p21 at 5 to 20 uM measured after 12 hrs by Western blot analysis; assay type: functional, cell-based
A549 [37] = assay: Cell cycle arrest in human A549 cells assessed as increase in accumulation of cells at S phase at 5 to 10 uM after 24 hrs by propidium iodide staining-based flow cytometric analysis; assay type: functional
A549 [38] = assay: Cell cycle arrest in human A549 cells assessed as increase in accumulation of cells at sub G0/G1 phase after 24 hrs by propidium iodide staining-based flow cytometric analysis; assay type: functional
A549 [39] = assay: Induction of apoptosis in human A549 cells assessed as early apoptotic cells at 15 uM after 12 hrs by Annexin V-FITC/propidium iodide staining-based flow cytometric analysis (reference value: 0.9%); assay type: functional
A549 [40] = assay: Suppression of mitochondrial membrane potential in human A549 cells assessed as increase in green fluorescence at 15 uM after 12 hrs by JC-1 staining based flow cytometry (reference value: 0.4%); assay type: functional

CC(C)(O)CCC[C@@](C)(O)[C@H]1CC[C@]2(C)[C@@H]1[C@H](O)C[C@@H]1[C@@]3(C)CC[C@H](OC(=O)C4CCNCC4)C(C)(C)[C@@H]3CC[C@]12C
IC50 (SGC-7901 [1]): 7.11 µM | Ratio IC50 (MCF7 [2]): 5 - 28 | IC50 (MGC-803 [3]): 6.51 µM | Ratio IC50 (SGC-7901 [4]): 5 - 28 | Activity (A549 [5]): Active | Ratio IC50 (MGC-803 [6]): 5 - 28 | IC50 [7]: > 100 µM | Ratio IC50 (A549 [8]): 5 - 28 | Activity (A549 [9]): Active | Activity (A549 [10]): Active | Activity (A549 [11]): Active | IC50 (PC-3 [12]): 5.44 µM | Activity (A549 [13]): Active | IC50 (MCF7 [14]): 1.27 µM | Activity (A549 [15]): Active | Activity (A549 [16]): Active | Activity (A549 [17]): Active | Activity (A549 [18]): Active | Activity (A549 [19]): Active | Activity (A549 [20]): Active | Activity (A549 [21]): Active | Activity (A549 [22]): Active | Activity (A549 [23]): Active | Activity (A549 [24]): Active | IC50 (A549 [25]): 1.07 µM | Activity (A549 [26]): 7.5% | Activity (A549 [27]): 27% | Activity (A549 [28]): Active | Activity (A549 [29]): inactive | Activity (A549 [30]): Active | Ratio IC50 (PC-3 [31]): 5 - 28 | Activity (A549 [32]): Active | Activity (A549 [33]): Dose-dependent effect | Activity (A549 [34]): Active | Activity (A549 [35]): inactive | Activity (A549 [36]): Active | Activity (A549 [37]): Active | Activity (A549 [38]): Active | Activity (A549 [39]): 50% | Activity (A549 [40]): 27.6%
